According to ChEMBL document CHEMBL1153382 (J Med Chem, 2009):
Active and inactive are the calls of the source. The calls are words filed in the database; no cut-off is given here.

What was measured:
[1] = target: 5-hydroxytryptamine receptor 2B (Homo sapiens, UniProt P41595); assay: Agonist activity at human 5HT2B receptor expressed in HEK293 cells at 10 uM assessed as calcium flux by FLIPR assay relative to serotonin; format: functional, cell-based
[2] = target: T1, 5-hydroxytryptamine receptor 2A (Homo sapiens, UniProt P28223); assay: Agonist activity at human 5HT2A receptor expressed in HEK293 cells at 10 uM assessed as calcium flux by FLIPR assay relative to serotonin; format: functional, cell-based
[3] = target: T2, 5-hydroxytryptamine receptor 2C (Homo sapiens) (UniProt P28335); assay: Agonist activity at human 5HT2C receptor expressed in HEK293 cells at 10 uM assessed as calcium flux by FLIPR assay relative to serotonin; format: functional, cell-based
T2 sequence (whole entry): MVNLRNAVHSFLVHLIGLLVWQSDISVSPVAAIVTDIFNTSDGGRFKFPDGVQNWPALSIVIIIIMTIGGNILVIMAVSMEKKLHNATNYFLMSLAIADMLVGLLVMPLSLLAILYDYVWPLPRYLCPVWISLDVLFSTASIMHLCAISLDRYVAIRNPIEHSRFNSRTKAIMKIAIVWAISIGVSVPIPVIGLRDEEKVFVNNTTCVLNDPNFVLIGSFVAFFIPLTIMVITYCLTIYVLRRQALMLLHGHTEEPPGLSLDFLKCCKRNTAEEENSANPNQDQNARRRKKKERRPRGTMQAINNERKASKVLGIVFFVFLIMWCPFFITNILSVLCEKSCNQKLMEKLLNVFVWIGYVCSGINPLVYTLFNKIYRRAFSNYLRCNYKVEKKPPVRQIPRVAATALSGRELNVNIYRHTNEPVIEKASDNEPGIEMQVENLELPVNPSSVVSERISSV

[4] = target: T1, 5-hydroxytryptamine receptor 2A; assay: Agonist activity at human 5HT2A receptor expressed in HEK293 cells assessed as calcium flux by FLIPR assay; format: functional, cell-based
[5] = target: Serotonin 2 receptors; 5-HT2a & 5-HT2c (Homo sapiens) (UniProt P28223+P28335); assay: Selectivity ratio of EC50 for human 5HT2A receptor to EC50 for human 5HT2C receptor
Homo sapiens = organism: Homo sapiens; assay: Selectivity ratio of EC50 for human 5HT2B receptor to EC50 for human 5HT2C receptor

Chain of 5-hydroxytryptamine receptor 2B (P41595 whole entry): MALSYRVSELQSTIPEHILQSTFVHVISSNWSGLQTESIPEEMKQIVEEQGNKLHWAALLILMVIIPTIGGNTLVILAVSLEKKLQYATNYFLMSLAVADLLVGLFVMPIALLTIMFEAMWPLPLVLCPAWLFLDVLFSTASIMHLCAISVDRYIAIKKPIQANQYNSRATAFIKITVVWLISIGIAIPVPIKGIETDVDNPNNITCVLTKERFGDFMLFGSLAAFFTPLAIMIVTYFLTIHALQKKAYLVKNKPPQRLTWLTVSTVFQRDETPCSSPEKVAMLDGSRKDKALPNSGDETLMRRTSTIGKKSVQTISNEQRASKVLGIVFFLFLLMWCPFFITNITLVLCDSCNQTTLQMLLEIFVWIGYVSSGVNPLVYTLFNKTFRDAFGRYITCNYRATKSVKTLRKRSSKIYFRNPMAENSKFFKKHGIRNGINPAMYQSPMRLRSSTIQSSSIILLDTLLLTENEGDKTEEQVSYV
T1 sequence (P28223 whole entry): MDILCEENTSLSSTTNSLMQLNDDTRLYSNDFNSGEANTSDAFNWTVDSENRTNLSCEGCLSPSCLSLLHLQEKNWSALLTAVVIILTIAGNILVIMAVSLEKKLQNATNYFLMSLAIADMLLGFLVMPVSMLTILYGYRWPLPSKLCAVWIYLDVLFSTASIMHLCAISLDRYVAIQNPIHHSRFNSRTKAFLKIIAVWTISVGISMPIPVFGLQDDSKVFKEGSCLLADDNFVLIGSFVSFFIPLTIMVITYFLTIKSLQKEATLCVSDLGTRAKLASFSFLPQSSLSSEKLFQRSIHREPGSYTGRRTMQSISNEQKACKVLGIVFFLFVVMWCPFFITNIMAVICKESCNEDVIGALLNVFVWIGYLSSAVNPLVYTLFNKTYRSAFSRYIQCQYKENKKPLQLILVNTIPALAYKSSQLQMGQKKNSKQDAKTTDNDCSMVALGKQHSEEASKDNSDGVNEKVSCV
Chain of Serotonin 2 receptors; 5-HT2a & 5-HT2c (Homo sapiens) (P28223 whole entry, looked up, one chain of several): as the sequence (P28223 whole entry) above

With NC[C@H]1C[C@H]1c1ccccc1 (racemic) as the compound, how does the Emax [1] read?
Its Emax is 20%.

And the Emax [2]?
Its Emax is < 12%.

What about the Emax [3] of the same compound?
Its Emax is 104%.

And the Activity [4]?
The Activity was “inactive”.

For NC[C@H]1C[C@@H]1c1cccc(F)c1F (relative stereo), which Emax [1] is on record?
Its Emax is 93%.

And the Emax [2]?
The Emax was 45%.

What about the Ratio EC50 [5] of the same compound?
The Ratio EC50 was > 50.

What about the Emax [3] of the same compound?
The Emax was 101%.

And the Ratio EC50 (Homo sapiens)?
The Ratio EC50 was 3.7.

What does the source list for NC[C@H]1C[C@@H]1c1ccccc1O (relative stereo)?
Emax [1]: 74%; Emax [2]: 81%; Ratio EC50 [5]: 3.2; Emax [3]: 94%; Ratio EC50 (Homo sapiens): 3.1

With CNC[C@H]1C[C@@H]1c1ccccc1 (racemic) as the compound, how does the Emax [1] read?
Its Emax is 26%.

What about the Emax [2] of the same compound?
Its Emax is < 12%.

What about the Emax [3] of the same compound?
Its Emax is 101%.

What about the Activity [4] of the same compound?
Its Activity is “inactive”.

How did the Emax [1] turn out when NC[C@H]1C[C@@H]1c1ccccc1F (relative stereo) was run?
The Emax was 65%.

What about the Emax [2] of the same compound?
Its Emax is 52%.

And the Ratio EC50 [5]?
Its Ratio EC50 is 20.

What about the Emax [3] of the same compound?
Its Emax is 91%.

What about the Ratio EC50 (Homo sapiens) of the same compound?
Its Ratio EC50 is 2.1.

NC[C@H]1C[C@@H]1c1cccc(O)c1 (relative stereo) was tested. Which Emax [1] did it give?
The Emax was 98%.

And the Emax [2]?
Its Emax is 92%.

What about the Ratio EC50 [5] of the same compound?
Its Ratio EC50 is 75.

What about the Emax [3] of the same compound?
Its Emax is 94%.

And the Ratio EC50 (Homo sapiens)?
The Ratio EC50 was 1.7.

What does the source list for NC[C@H]1C[C@@H]1c1ccc(F)cc1F (relative stereo)?
Emax [1]: 88%; Emax [2]: 85%; Ratio EC50 [5]: 13; Emax [3]: 98%; Ratio EC50 (Homo sapiens): 9.9

Cc1cc([C@H]2C[C@@H]2CN)ccc1F (relative stereo) was tested. Which Emax [1] did it give?
The Emax was 83%.

What about the Emax [2] of the same compound?
Its Emax is 73%.

And the Ratio EC50 [5]?
Its Ratio EC50 is 39.

What about the Emax [3] of the same compound?
The Emax was 91%.

What about the Ratio EC50 (Homo sapiens) of the same compound?
Its Ratio EC50 is 0.83.

NC[C@H]1C[C@@H]1c1ccc2ccccc2c1 (relative stereo) was tested. Which Emax [1] did it give?
Its Emax is 21%.

What about the Emax [2] of the same compound?
Its Emax is < 12%.

And the Emax [3]?
The Emax was 60%.

And the Activity [4]?
Its Activity is “inactive”.

What about the Ratio EC50 (Homo sapiens) of the same compound?
Its Ratio EC50 is 0.18.

NC[C@@H]1C[C@H]1c1ccccc1 was tested. Which Emax [1] did it give?
Its Emax is 72%.

What about the Emax [2] of the same compound?
Its Emax is < 12%.

What about the Emax [3] of the same compound?
The Emax was 102%.

And the Activity [4]?
The Activity was “inactive”.

And the Ratio EC50 (Homo sapiens)?
Its Ratio EC50 is 3.4.

What does the source list for COc1cccc([C@H]2C[C@@H]2CN)c1 (relative stereo)?
Emax [1]: 96%; Emax [2]: 90%; Ratio EC50 [5]: 39; Emax [3]: 97%; Ratio EC50 (Homo sapiens): 4.8

With NC[C@H]1C[C@@H]1c1ccc(Cl)cc1 (relative stereo) as the compound, how does the Emax [1] read?
Its Emax is 80%.

What about the Emax [2] of the same compound?
The Emax was 64%.

And the Ratio EC50 [5]?
Its Ratio EC50 is 59.

And the Emax [3]?
Its Emax is 106%.

What about the Ratio EC50 (Homo sapiens) of the same compound?
Its Ratio EC50 is 5.3.

How did the Emax [1] turn out when Cc1ccc([C@H]2C[C@@H]2CN)cc1 (relative stereo) was run?
Its Emax is 79%.

What about the Emax [2] of the same compound?
The Emax was 18%.

And the Ratio EC50 [5]?
The Ratio EC50 was 14.

And the Emax [3]?
Its Emax is 69%.

What about the Ratio EC50 (Homo sapiens) of the same compound?
Its Ratio EC50 is 0.28.

How did the Emax [1] turn out when Cc1cccc(Cl)c1[C@H]1C[C@@H]1CN (relative stereo) was run?
The Emax was 90%.

What about the Emax [2] of the same compound?
Its Emax is 56%.

What about the Ratio EC50 [5] of the same compound?
Its Ratio EC50 is 207.

What about the Emax [3] of the same compound?
The Emax was 97%.

And the Ratio EC50 (Homo sapiens)?
The Ratio EC50 was 2.

Which results are given for NC[C@H]1C[C@@H]1c1ccc(F)c(F)c1 (relative stereo)?
Emax [1]: 96%; Emax [2]: 96%; Ratio EC50 [5]: 64; Emax [3]: 103%; Ratio EC50 (Homo sapiens): 3.2

For NC[C@H]1C[C@@H]1c1ccc(Br)cc1 (relative stereo), which Emax [1] is on record?
Its Emax is 51%.

And the Emax [2]?
The Emax was 26%.

And the Ratio EC50 [5]?
The Ratio EC50 was > 7.

And the Emax [3]?
The Emax was 87%.

What about the Ratio EC50 (Homo sapiens) of the same compound?
The Ratio EC50 was 20.

NC[C@H]1C[C@@H]1c1ccccc1Cl (relative stereo) was tested. Which Emax [1] did it give?
The Emax was 82%.

And the Emax [2]?
The Emax was 54%.

And the Ratio EC50 [5]?
The Ratio EC50 was 31.

And the Emax [3]?
The Emax was 94%.

And the Ratio EC50 (Homo sapiens)?
Its Ratio EC50 is 5.8.

Cc1ccc(Cl)c([C@H]2C[C@@H]2CN)c1F (relative stereo) was tested. Which Emax [1] did it give?
Its Emax is 74%.

And the Emax [2]?
The Emax was 65%.

And the Ratio EC50 [5]?
The Ratio EC50 was 26.

What about the Emax [3] of the same compound?
The Emax was 117%.

What about the Ratio EC50 (Homo sapiens) of the same compound?
Its Ratio EC50 is 9.2.

Which Emax [1] does the source give for Cc1cccc([C@H]2C[C@@H]2CN)c1C (relative stereo) here?
Its Emax is 90%.

And the Emax [2]?
Its Emax is 59%.

And the Ratio EC50 [5]?
The Ratio EC50 was 52.

And the Emax [3]?
Its Emax is 107%.

What about the Ratio EC50 (Homo sapiens) of the same compound?
The Ratio EC50 was 1.2.

What does the source list for NC[C@H]1C[C@@H]1c1ccccc1C(F)(F)F (relative stereo)?
Emax [1]: 102%; Emax [2]: < 12%; Emax [3]: 101%; Activity [4]: inactive; Ratio EC50 (Homo sapiens): 7.2

NC[C@H]1C[C@@H]1c1ccc(C(F)(F)F)cc1 (relative stereo) was tested. Which Emax [1] did it give?
Its Emax is 56%.

What about the Emax [2] of the same compound?
The Emax was < 12%.

What about the Emax [3] of the same compound?
Its Emax is 91%.

And the Activity [4]?
The Activity was “inactive”.
